Legend:
[1] = test system: FADD-deficient variant of human Jurkat T cells; assay: TNF-α induced necroptosis inhibition, ATP-based viability assessment; type: cell-based; conditions: 10 ng/mL human TNF-α, 24 hours, CellTiter-Glo viability; for EC50: Jurkat
Procedure: (§1) Evaluation of necroptosis inhibitory activity was performed using a FADD-deficient variant of human Jurkat T cells or with L929 cells treated with TNF-α as previously described (Degterev et al., Nat. Chem. Biol. 1:112 (2005) and Jagtap et al., J. Med. Chem. 50: 1886 (2007)). Utilizing these conditions the cells efficiently underwent necroptosis. For EC50 value determinations, cells were treated with 10 ng/mL of human TNF-α in the presence of increasing concentration of test compounds for 24 hours followed by ATP-based viability assessment.
(§2) ATP-based viability assessment: Briefly, necroptosis activity was performed using a FADD-deficient variant of human Jurkat T cells or L929 cells treated with TNF-α. For EC50 value determinations, cells (500,000 cells/mL, 100 μL per well in a 96-well plate) were treated with 10 ng/mL of human TNF-α in the presence of increasing concentration of test compounds for 24 hours at 37° C. in a humidified incubator with 5% CO2 followed by ATP-based viability assessment. Stock solutions (30 mM) in DMSO were initially prepared and then diluted with DMSO to give testing solutions, which were added to each test well. The final DMSO concentration was 0.5%. Eleven compound test concentrations (0.030-100 μM) were used. Each concentration was done in duplicate.
(§3) Cell viability assessments were performed using a commercial luminescent ATP-based assay kit (CellTiter-Glo, Promega, Madison, Wis.) according to the manufacturer's instructions. Briefly, 40 μL of the cell lysis/ATP detection reagent was added to each well. Plates were incubated on a rocking platform for 10 minutes at room temperature and luminescence was measured using a Wallac Victor 3 plate-reader (Perkin Elmer, Wellesley, Mass.). Cell viability was expressed as a ratio of the signal in the well treated with TNF-α and compound to the signal in the well treated with compound alone. This was done to account for nonspecific toxicity, which in most cases was <10%. EC50 values were calculated using nonlinear regression analysis of sigmoid dose-response (variable slope) curves from plots of log [I] verses viability values.

L929 cells = assay: as above; type: cell-based; conditions: 10 ng/mL human TNF-α, 24 hours, CellTiter-Glo viability; for EC50: Mus musculus, L929
Procedure: as §1, §2, §3

SMILES	EC50 [1]	EC50 Fadd −/− Jurkat [1]	other results
COc1cc(C2CC(=O)NC(SCC(=O)Nc3nccs3)=C2C#N)cc(OC)c1OC (stereo not drawn) [(1)]	0.477 µM	–	EC50 (L929 cells): 0.197 µM
N#CC1=C(SCC(=O)Nc2nccs2)NC(=O)CC1c1ccccc1F (stereo not drawn) [(2)]	0.769 µM	–	–
N#CC1=C(SCC(=O)Nc2nccs2)NC(=O)CC1c1ccc(Cl)cc1 (stereo not drawn) [(3)]	0.823 µM	–	–
COc1ccc(C2CC(=O)NC(SCC(=O)Nc3nccs3)=C2C#N)cc1OC (stereo not drawn) [(4)]	0.354 µM	–	–
COC(=O)C1C(=O)NC(SCC(=O)Nc2nccs2)=C(C#N)C1c1ccc(Cl)cc1 (stereo not drawn) [(5)]	25 µM	–	–
N#CC1=C(SCC(=O)Nc2nccs2)NC(=O)CC1c1ccccc1 (stereo not drawn) [(6)]	–	Partial activity	–
COc1ccccc1C1CC(=O)NC(SCC(=O)Nc2nccs2)=C1C#N (stereo not drawn) [(7)]	2.38 µM	–	–
N#CC1=C(SCC(N)=O)NC(=O)CC1c1ccccc1 (stereo not drawn) [(8)]	–	inactive	–
COc1ccc(NC(=O)CSC2=C(C#N)C(c3cc(OC)c(OC)c(OC)c3)CC(=O)N2)cc1 (stereo not drawn) [(9)]	–	inactive	–
COc1cc(C2CC(=O)NC(SCC(=O)Nc3ccccc3)=C2C#N)cc(OC)c1OC (stereo not drawn) [(10)]	–	inactive	–
COc1cc(C2CC(=O)NC(SCC(=O)Nc3ccc(F)cc3)=C2C#N)cc(OC)c1OC (stereo not drawn) [(11)]	–	inactive	–
COc1cc(C2CC(=O)NC(SCC(=O)Nc3c(C)cc(C)cc3C)=C2C#N)cc(OC)c1OC (stereo not drawn) [(12)]	–	inactive	–
O=C(Nc1ccccc1)N1N=CCC1c1ccccc1 (stereo not drawn) [(17)]	–	inconclusive	–
CCN1CCN(CC(=O)N2N=CCC2c2ccccc2)CC1 (stereo not drawn) [(18)]	0.41 µM	–	–
Cc1ccc(C(=O)C2=NNCC2c2ccccc2)cc1 (stereo not drawn) [(19)]	0.369 µM	–	–
O=C(CSc1ccc(Cl)cc1)N1N=CCC1c1ccccc1 (stereo not drawn) [(20)]	3.21 µM	–	–
O=C(CSc1nc2ccccc2s1)N1N=CCC1c1ccccc1 (stereo not drawn) [(21)]	1.56 µM	–	–
Clc1ccc(-c2cc[nH]n2)cc1 [(22)]	–	Inactive	–
CCOC(=O)C1NN=C(C(=O)c2ccccc2)C1c1ccccc1 (stereo not drawn) [(23)]	–	Inactive	–
CCOC(=O)C1=NNC(C(=O)c2ccccc2)C1c1ccc(Cl)cc1 (stereo not drawn) [(24)]	–	Inactive	–
Cn1ccnc1SCC(=O)N1N=CCC1c1ccccc1 (stereo not drawn) [(25)]	–	Inactive	–
Cc1ccc2nc(SCC(=O)N3N=CCC3c3ccccc3)nc(C)c2c1 (stereo not drawn) [(26)]	–	Inactive	–
C#CC1(O)c2ccccc2C=Cc2ccccc21 [(28)]	2.98 µM	–	–

SMILES	EC50 [1]	EC50 Fadd −/− Jurkat [1]	other results
C#CC(O)(c1ccccc1)c1ccccc1 [(29)]	31.8 µM	–	–
CCC1(O)c2ccccc2CCc2ccccc21 [(30)]	5.83 µM	–	–
C=CC1(O)c2ccccc2CCc2ccccc21 [(31)]	2.95 µM	–	–
C#CC1(O)c2ccccc2CCc2ccc(F)cc21 (stereo not drawn) [(32)]	2 µM	–	–
C#CC1(O)c2ccccc2CCc2c(F)cccc21 (stereo not drawn) [(33)]	4.79 µM	–	–
C#CC1(O)CCCCCC1 [(34)]	–	Inactive	–
C#CC1(O)c2ccccc2-c2ccccc21 [(35)]	–	Inactive	–
C#CC1(OC)c2ccccc2CCc2ccccc21 [(36)]	–	Inactive	–
C=C(Br)C1(Br)c2ccccc2CCc2ccccc21 [(37)]	–	Inactive	–
C=C(Cl)C1(Cl)c2ccccc2CCc2ccccc21 [(38)]	–	Inactive	–
OC1(C#CBr)c2ccccc2CCc2ccccc21 [(39)]	–	Inactive	–
CC#CC1(O)c2ccccc2CCc2ccccc21 [(40)]	–	Inactive	–
C#CC1(O)c2ccccc2CCc2c1ccc1ccccc21 (stereo not drawn) [(41)]	–	Inactive	–
C#CC1(O)c2cc(I)ccc2CCc2ccc(I)cc21 [(42)]	–	Inactive	–
C#CC1(O)c2cc([N+](=O)[O-])ccc2CCc2ccc([N+](=O)[O-])cc21 [(43)]	–	Inactive	–
C#CC1(O)c2ccccc2CCc2ccc(Br)cc21 (stereo not drawn) [(44)]	–	Inactive	–
C#CC1(O)c2ccccc2CCc2ccc(Cl)cc21 (stereo not drawn) [(45)]	–	Inactive	–
C#CC1(O)c2ccccc2CCc2ccc(C)cc21 (stereo not drawn) [(46)]	–	Inactive	–
CC(C)(O)C#CC1(O)c2ccccc2CCc2ccccc21 [(47)]	–	Inactive	–
Cc1sc2ncn(Cc3ccccc3)c(=O)c2c1C [(49)]	3.8 µM	–	–
O=c1c2c3c(sc2ncn1Cc1cccc2cccnc12)CCC3 [(50)]	> 30 µM	–	–
COc1ccc(F)cc1Cn1cnc2sc3c(c2c1=O)CCC3 [(51)]	10.9 µM	–	–
COc1ccc(Cn2cnc3sc4c(c3c2=O)CCC4)cc1F [(52)]	3.05 µM	–	–

SMILES	EC50 [1]	EC50 Fadd −/− Jurkat [1]	other results
O=c1c2c3c(sc2ncn1Cc1cccc2ccccc12)CCC3 [(53)]	> 30 µM	–	–
N#Cc1ccc(Cn2cnc3sc4c(c3c2=O)CCC4)cc1 [(54)]	0.861 µM	–	–
O=c1cc(Cn2cnc3sc4c(c3c2=O)CCC4)c2ccccc2[nH]1 [(55)]	> 30 µM	–	–
O=c1c2ccccc2ncn1Cc1ccc(Cl)cc1 [(56)]	> 30 µM	–	–
O=c1c2c3c(sc2ncn1Cc1c(Cl)cccc1Cl)CCC3 [(57)]	0.936 µM	–	–
CCSCC(=O)Nc1ccc(F)cc1 [(64)]	14.1 µM	–	EC50 L929 (L929 cells): Inactive
Cc1ccc(Cn2ncc3ccccc32)cc1 [(65)]	3.62 µM	–	EC50 L929 (L929 cells): Inactive
Cc1ccc(CN(C)C(=O)C2CCCCC2)o1 [(66)]	2.62 µM	–	EC50 (L929 cells): 47.1 µM
CNC(Cc1ccccc1)=C1C(=O)CC(C)(C)CC1=O [(67)]	2.25 µM	–	EC50 (L929 cells): 10 µM
CNS(=O)(=O)c1cccc(C(=O)OCC(=O)N2CCCc3ccccc32)c1 [(68)]	1.63 µM	–	EC50 L929 (L929 cells): Inactive
O=C(NCc1cccs1)C1CCCCC1 [(69)]	7.72 µM	–	EC50 L929 (L929 cells): Inactive
Cc1s/c(=N\C(=O)C2=NNC(=O)CC2)[nH]c1-c1ccc(F)cc1 [(70)]	0.908 µM	–	EC50 L929 (L929 cells): Inactive
CC(C)(C)OC(=O)Nc1ccc(-c2cc[nH]n2)cc1 [Compound (13)]	5.38 µM	–	EC50 (L929 cells): 0.89 µM
O=C(N1N=CCC1c1ccccc1)C12CC3CC(CC(C3)C1)C2 (stereo not drawn) [Compound (14)]	0.41 µM	–	EC50 (L929 cells): 4.2 µM
O=C(C1=NNCC1c1ccccc1)c1ccccc1 (stereo not drawn) [Compound (15)]	0.369 µM	–	EC50 (L929 cells): 4.02 µM
O=C(CSc1nnnn1-c1ccccc1)N1N=CCC1c1ccccc1 (stereo not drawn) [Compound (16)]	0.629 µM	–	EC50 (L929 cells): 73 µM
C#CC1(O)c2ccccc2CCc2ccccc21 [Compound (27)]	3.23 µM	–	EC50 (L929 cells): 0.659 µM
O=c1c2c3c(sc2ncn1Cc1ccccc1)CCC3 [Compound (48)]	0.216 µM	–	EC50 (L929 cells): 8.66 µM
CCN(CC)S(=O)(=O)c1ccc(C(=O)/N=c2\[nH]ccs2)cc1 [Compound (58)]	8.96 µM	–	EC50 (L929 cells): 1.11 µM
O=C1NC(Cc2c[nH]c3ccccc23)C(=O)N1Cc1ccc(Cl)cc1 (stereo not drawn) [Compound (59)]	0.343 µM	–	EC50 (L929 cells): 7.46 µM
O=C(C1COc2ccccc2O1)N1CCc2ccccc21 (stereo not drawn) [Compound (60)]	0.629 µM	–	EC50 (L929 cells): 23 µM
O=C(COc1ccccc1)N1CCc2ccccc21 [Compound (61)]	–	Inactive	–
c1ccc(C2CC3CC4(CCCC4)N2O3)cc1 (stereo not drawn) [Compound (62)]	0.668 µM	–	EC50 (L929 cells): 10.1 µM
